Experimental data reported in publication PMC11672137, “High-Affinity Lectin Ligands Enable the Detection of Pathogenic Pseudomonas aeruginosa Biofilms: Implications for Diagnostics and Therapy” (JACS Au, 2024).

Tests used:
LecB (PAO1) = biological target: T1, LecB (PAO1) (Pseudomonas aeruginosa, UniProt Q9HYN5); assay: Direct binding assay based on fluorescence polarization, titration with LecB
T1 construct: made in house
Procedure: Averages and standard deviations were determined from at least three independent titrations of technical triplicates each.
(§1) Direct binding affinity determination of LecA and LecB imaging probes was performed with direct titration of protein and imaging probes in TBS/Ca2+ buffer. Protein dilution series was prepared in 96 well plates and 10 µL of each dilution in triplicates were mixed with 10 µL of fluorescent compound (20 nM) in 384-well microtiter plates (Greiner Bio-One, Germany, cat no 781900). The plates were centrifuged (1 min, 500 g), sealed and incubated for 2 h in dark wet chamber under gentle shaking. Fluorescence was measured on a PheraStar FS plate reader (BMG Labtech GmbH, Germany) with excitation filters at 485 nm and emission filters at 535 nm. The data were analysed with MARS Data Analysis Software (BMG Labtech GmbH, Germany) to calculate Kd values.

[1] = system: P. aeruginosa PAO1 biofilm aggregates; assay: In vitro biofilm staining under static conditions (CLSM); format: cell-based, Pseudomonas aeruginosa; conditions: 10 μM probe
Procedure: The ability of LecA- and LecB-targeting probes to image P. aeruginosa biofilms was evaluated in vitro. P. aeruginosa PAO1, constitutively expressing mCherry from plasmid pMP7605,[56] was cultivated in microtiter plates under shaking conditions to form biofilm aggregates, as reported previously.[43] Fluorescein-carbohydrate conjugates were added to the bacterial culture to reach a final concentration of 10 μM and biofilms were analyzed by confocal laser scanning microscopy (CLSM) under static conditions (Figures 2 and S4). […] To our surprise, the intended negative control xyloside 8 also stained the P. aeruginosa biofilms (Figures 2C and S4). In all cases, the green signal originating from the fluorescein conjugates was not homogeneously spread over the entire structure of the biofilm aggregates, but a certain heterogeneity was observed across biofilm regions as bright spots. Further, the intensity of staining varied between replicates (see the Supporting Information for individual experiments). […] Instead, only a very faint green shadow was detected for 9 indicating its suitability as a negative control. Thus, the observed biofilm staining with imaging probes 2, 3, 6, 7 and also xyloside 8 was carbohydrate dependent and while 2, 3 and 6, 7 are ligands of LecA and LecB, respectively, the molecular mechanism of xyloside 8 remains elusive.
One representative image of stained aggregates is shown. […] Scale bar = 50 μm.
P. aeruginosa PAO1 expressing the red fluorescent protein mCherry (pMP7605)23 was selected for this study. For this, P. aeruginosa PAO1 (DSM 19880, Braunschweig, Germany) was transformed with the mCherry plasmid (pMP7605).23 Bacteria were stored at -80 °C. For experimental use, bacteria were streaked on lysogeny broth (LB) agar (1% tryptone, 1% NaCl, 0,5% yeast extract, 1.3% agar) containing 60 µg/mL gentamicin (Gm) and incubated at 37 °C overnight. For liquid cultures, bacterial colonies were transferred from LB agar to 10 mL LB (1% tryptone, 1% NaCl, 0,5% yeast extract) containing 60 µg/mL Gm and incubated at 37 °C and 180 rpm overnight. For exponential growth, 10 mL of LB containing 60 µg/mL Gm were inoculated with P. aeruginosa PAO1 mCherry (pMP7605)23 using an overnight liquid culture […]
In vitro biofilm staining under static conditions
Biofilm staining experiments were performed in analogy to Wagner et al. with P. aeruginosa PAO1 pMP7605 (Figure S4).23,24 Bacterial overnight cultures were inoculated from single colonies in 5 mL LB supplemented with gentamicin (120 µg/mL) and grown at 37 °C and 180 rpm. The bacterial overnight cultures were then diluted to OD600 of 0.02 with LB and 500 µL of culture per well were transferred to 24-well plate (24CG, Art. No. 5231 or 24FC, Art. No. 3231). The biofilm was grown under shaking conditions (180 rpm) at 37 °C for 20–24 h. Biofilm aggregates were visualized using a confocal laser scanning microscope (Leica TCS Sp8 CLSM) using a 25× numerical-aperture water objective. Z-stacks (463 x 463 μm) were recorded every 2 μm for mCherry (ex.: 561 nm, red) and for fluorescein containing imaging compounds (ex.: 488 nm, green). […]
Maximum Intensity Projections (contrast range automatically adjusted by Imaris). Only one staining experiment was carried out for imaging probes 4 and S26, all other fluorescein conjugates were analyzed in at least three independent experiments.

[2] = system: P. aeruginosa PAO (DSM 1707) lung infection; assay: Optical in vivo imaging and ex situ organ analysis in acute P. aeruginosa airway infection model; parameters: species or system mice
Procedure: Encouraged by the high affinity of the imaging probes and their ability to stain P. aeruginosa biofilms in vitro, we further investigated the compounds in vivo using an acute P. aeruginosa airway infection model in mice. Intratracheal administration of P. aeruginosa PAO (DSM 1707) results in a local infection that is mainly restricted to the lungs. With the infection dose of 2 × 10^6 cfu/50 μL chosen here, the number of bacteria peaks at 6 h after infection before the host immune system clears the bacteria.[70]
Then, imaging probes, divalent LecA-targeting probe 21, LecB-targeting probe 22 and the control sulfo-Cy7 (free acid), were administered intravenously to the tail vein 2 h post infection. […] This accumulation in the lungs was then confirmed by a subsequent ex vivo analysis of the organs.
Figure 6 Optical in vivo imaging in mice and ex situ analysis of organs with P. aeruginosa PAO acute lung infection. In vivo imaging of mice with P. aeruginosa intratracheal infection (right) or uninfected control mice (left) after intravenous administration of imaging probes 2 h post infection: (A) 50 nmol/20 g divalent LecA probe 21 or (B) 100 nmol/20 g LecB probe 22. Then, explanted lungs were analyzed for fluorescence intensity, shown as a false color scale in (C) divalent LecA probe 21 (left: uninfected, right: infected) and (D) LecB probe 22 (left: uninfected; middle: uninfected control without dye; right: infected). (E) Quantification of the average radiant efficiency of the divalent LecA ligand 21 and the control sulfo-Cy7 free acid in the lungs of uninfected and infected mice. Duplicate data points and the mean are depicted. (F) Average radiant efficiency was quantified for the LecB imaging probe 22 in lungs of infected and uninfected mice. In addition, (G) further mouse organs were explanted after i.v. injection of 21 (50 nmol/20 g) or control sulfo-Cy7 free acid (50 nmol/20 g) and imaged. Organs of uninfected (left), infected (right) mice, and uninfected mice without any dye (upper middle on the sulfo-Cy7 free acid rows) were compared. Fluorescence intensities are shown as false color pictures. […]
Lung infection model and in vivo imaging of P. aeruginosa
C57BL/6J and albino (Tyrc2J) C57BL/6 mice were bred and housed at the Central Animal Facility, Hannover Medical School, Germany. Animal experiments were performed with permission number: 33.9-42502-04-16/2072 from the Lower Saxony State Office for Consumer Protection and Food Safety (LAVES), Germany. Mice were anesthetized with 3% isoflurane (CP Pharma) and infected intratracheally with 2x10^6 cfu/50 µL of P. aeruginosa PAO (DSM1707, Braunschweig, Germany) as described previously.26
50 – 100 nmol sulfo-Cyanine7-compound (divalent LecA probe 21; LecB probe 22; control sulfoCy7 free acid, CAS no.: 2104632-30-4, Lumiprobe; control sulfoCy7 azide, 20, Lumiprobe) per 20 g mouse was injected intravenously 2 h after infection. Optical imaging was performed 4 – 7 h after compound administration. Mice were anesthetized with 3% isoflurane […]
an in vivo imaging system (IVIS SpectrumCT, PerkinElmer). Subsequently mice were euthanized and organs were imaged (675/760 nm) ex situ individually. To enhance Cyanine7 specific fluorescent signal spectral unmixing was performed on in vivo images using LivingImage 4.7 (PerkinElmer). […]

[3] = system: P. aeruginosa PAO-infected murine lung sections; assay: CLSM of lung sections of infected and uninfected mice; format: in vivo; conditions: after i.v. injection
Procedure: For more detailed insights into the localization of divalent LecA ligand 21 and the control Sulfo-Cyanine7, lung sections of infected and uninfected mice were prepared and analyzed by CLSM. […] Signals corresponding to 21 were localized in cellular accumulations around medium-sized blood vessels. Particle-shaped signals and signals clustered into larger dots were observed. […] Possibly, signals detected in lung sections stained with a divalent LecA imaging probe are due to complexes of membrane-bound LecA with 21. These particle-shaped complexes probably represent the divalent imaging probe 21 bound to bacterial cells. Additionally, it is possible that larger dots are attributed to accumulated bacteria in phagocytes such as neutrophils, monocytes, and dendritic cells. However, intracellular detection using the divalent LecA imaging probe 21 has not yet been analyzed and requires further experiments.
Figure 7 Confocal laser scanning microscopy analysis of P. aeruginosa PAO-infected murine lung sections using divalent LecA imaging probe 21. Sections of cryopreserved murine lungs infected with P. aeruginosa were prepared and analyzed by CLSM after intravenous injection of divalent LecA imaging probe 21 (A) or the control Sulfo-Cyanine7 free acid (B). Lung sections of uninfected animals were used as a control after i.v. injection of 21 (C) or control Sulfo-Cyanine7 free acid (D). Cell nuclei are shown in red (DAPI) and green signals correspond to 21 or Sulfo-Cyanine7 free acid, respectively. Green signals were detected only in infected lung sections after injection of divalent LecA ligand 21. Signals were located in cellular accumulations around medium-sized blood vessels. Scale bar for A and B = 100 μm and for C and D = […]. […]
Lung sections and ex vivo imaging of P. aeruginosa
Sections of 8 µm were made from the frozen lung lobes using a cryostat (Leica, Germany). The sections were mounted on adhesive slides, dried overnight at room temperature and mounted with a DAPI containing gel. Confocal imaging was performed on a Leica SP8 […]
system equipped with a super -continuum white light laser (WLL) and a multi - photon laser source (MP) through a water immersion objective (Leica HC FLUOTAR L 25x/1,0 with a motorized correction ring). Images (1024x1024 pixels) were acquired using the MP excitation of 720 nm and emission band ([…]) for detecting DAPI and the WLL at 730 nm excitation with an emission band 748 nm – 848 nm for Cyanine7 employing non-descanned or descanned HyD detectors, respectively. Further image analysis and image overlay was performed in ImageJ2 software.27 […]

LecA = biological target: T2, LecA (Pseudomonas aeruginosa, UniProt Q05097); assay: Direct binding assay based on fluorescence polarization, titration with LecA; conditions: negative controls
T2 construct: made in house
T2 sequence (Q05097 whole entry): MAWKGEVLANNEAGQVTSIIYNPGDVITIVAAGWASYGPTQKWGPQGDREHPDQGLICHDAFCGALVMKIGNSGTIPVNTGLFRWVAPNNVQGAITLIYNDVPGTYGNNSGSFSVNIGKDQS
Procedure: The binding affinities of imaging probes 2–4 for LecA were determined using a direct binding assay based on fluorescence polarization (FP).[47]
(A, C) Monovalent LecA imaging probes 2–4 based on phenyl β-D-galactoside (1) were titrated with LecA. […] (E) Xyloside-fluorescein conjugate (8) and azido fluorescein (9) served as negative controls in titrations with LecA and LecB, respectively. Averages and standard deviations were determined from at least three independent titrations of technical triplicates each.
as §1

T1 sequence (Q9HYN5 entry or part of it): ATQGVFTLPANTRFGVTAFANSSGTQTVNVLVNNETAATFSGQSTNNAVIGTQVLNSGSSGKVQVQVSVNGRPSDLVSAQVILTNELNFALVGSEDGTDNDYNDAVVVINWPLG

SMILES | Kd (LecB (PAO1)) [µM] | Staining of biofilm aggregates [1] | Cyanine7 signals in lung sections, infected mice [3] | Cyanine7 signals in lung sections, uninfected mice [3] | further results
C[C@@H]1O[C@H](CNS(=O)(=O)c2ccc(OCc3cn(CCOCCOCCOCCNC(=S)Nc4ccc5c(c4)C(=O)OC54c5ccc(O)cc5Oc5cc(O)ccc54)nn3)cc2)[C@@H](O)[C@H](O)[C@@H]1O [compound 7] | 0.84 ± 0.11 | accumulated at the biofilm aggregates, although with weaker staining | – | – | –
CN1/C(=C/C=C2C=C(/C=C/C3=[N+](CCCCCC(=O)NCCCn4cc(CCN(Cc5ccc(NC(=O)CCc6ccc(O[C@@H]7O[C@H](CO)[C@H](O)[C@H](O)[C@H]7O)cc6)cc5)Cc5ccc(NC(=O)CCc6ccc(O[C@@H]7O[C@H](CO)[C@H](O)[C@H](O)[C@H]7O)cc6)cc5)nn4)c4ccc(S(=O)(=O)[O-])cc4C3(C)C)CCC/2)C(C)(C)c2cc(S(=O)(=O)O)ccc21 [compound 21] | – | – | Cyanine7 signals were exemplarily visible | no signals were detected | Average fluorescence radiant efficiency of explanted lungs ([2]; ex vivo analysis of organs, infected vs uninfected mice): elevated compared with uninfected mice; Cyanine7 signal in lung area, optical in vivo imaging ([2]; i.v. 2 h post infection, infected vs uninfected mice, 21 50 nmol/20 g, 22 100 nmol/20 g): elevated Cyanine7 signals in the area of the lung of infected mice compared to uninfected mice; Fluorescence ex vivo in kidneys ([2]; infected vs uninfected animals): moderately increased signals compared to uninfected animals; Fluorescence ex vivo in lungs of uninfected animals compared to control sulfo-Cyanine7 (free acid) ([2]; uninfected mice, ex vivo quantification): a certain accumulation in the lungs of uninfected animals
C[C@@H]1O[C@H](CNS(=O)(=O)c2ccc(-c3cn(CCOCCOCCOCCNC(=S)Nc4ccc5c(c4)C(=O)OC54c5ccc(O)cc5Oc5cc(O)ccc54)nn3)s2)[C@@H](O)[C@H](O)[C@@H]1O [compound 6] | 1.65 ± 0.14 | accumulated at the biofilm aggregates, although with weaker staining | – | – | –
C[N+]1=C(C=CC2=CC(=CC=C3N(CCCCCC(=O)O)c4ccc(S(=O)(=O)[O-])cc4C3(C)C)CCC2)C(C)(C)c2cc(S(=O)(=O)[O-])ccc21.[Na+] [Sulfo-Cyanine7, reference compound] | – | – | no signals were detected | no signals were detected | –
O=C1OC2(c3ccc(O)cc3Oc3cc(O)ccc32)c2ccc(NC(=S)NCCOCCOCCOCCn3cc(CNc4ccc(S[C@@H]5OC[C@@H](O)[C@H](O)[C@H]5O)cc4)nn3)cc21 [compound 8] | – | also stained | – | – | Binding to LecA in direct FP titration (LecA): inability to bind; Binding to LecB in direct FP titration (LecB (PAO1); negative control): inability to bind
